Assay results as given in patent US20090082368A1, “METHODS OF MODULATING NEUROTROPHIN-MEDIATED ACTIVITY” (PainCeptor Pharma Corporation, priority 2007, published 2009).
Where two headings read alike, the source gives them in different places.

Key:
[1] = test system: NGF-induced ERK phosphorylation; experiment: Inhibition of NGF-induced Erk 1/2 phosphorylation (pERK); format: cell-based; conditions: Rattus norvegicus, Table 2
Protocol: This assay is useful for establishing that the compounds of the invention are functional NGF antagonists, not receptor agonists (an agonist could conceivably block NGF binding but actually activate the receptor). Erk 1/2 is a kinase activated down stream of TrkA and is a well studied member of the NGF-induced signal transduction cascade.
PC12 cells expressing TrkA and p75 are acutely exposed to 1 ng/mL NGF (15 min; 37° C.; 5% CO2) that is pre-incubated (30 min; room temperature) with or without the compounds. Cells are lysed in Laemmli sample buffer (for SDS-PAGE) or a lysis buffer containing Triton X-100 (for ELISA). Following SDS-PAGE, proteins are electroblotted onto nitrocellulose and immunoprobed for phosphorylated Erk 1 and 2. Blocking and primary antibody incubations of immunoblots are performed in Tris-buffered saline-Tween (10 mM Tris, pH 8.0, 150 mM NaCl, and 0.2% Tween 20) supplemented with 5% (w/v) bovine serum albumin (BSA); secondary antibody incubations are performed in 5% (w/v) dried skim milk powder. Immunoreactive bands are detected by chemiluminescence.
A quantitative method to detect phosphorylated Erk 1/2 by immunofluorescence is also used. Neuroscreen-1 cells are grown in a 96 well plate. NGF preincubated with or without the compounds for 30 minutes, is added to the cells for 5 minutes at 37° C. Cells are then fixed and stained with an antibody against phosphor-ERK 1/2. A fluorescently labeled secondary antibody is used to show the presence of phosphorylated ERK 1/2. Quantitative results are generated by photographing the wells with light of the appropriate wavelength, followed by software based image analysis.

[2] = test system: NGF receptors on PC12 cells (TrkA+p75); experiment: NGF binding (125I-NGF) using PC12 cells; design: species or system rat
Protocol: NGF binding was evaluated using methods familiar to those who are skilled in the art. Briefly, cells expressing one or both NGF receptors (PC12: TrkA+p75; A875: p75 alone; HEK/CHO_trkA: TrkA alone) were harvested by replacing the medium with the cell dissociation buffer (Amersham) and incubating at 37° C. for 15 min. […] For most compounds, multiple dose-response curves were generated.
The IC50 data shown in Tables A-J were acquired using the procedure described herein using PC12 cells.

PC12 cells = experiment: Inhibition of NGF-induced neurite outgrowth; format: cell-based; conditions: Rattus norvegicus, PC-12, 96 h, Table 3, 4 days exposure to NGF
Protocol: This assay is run as a further functional marker of NGF antagonism and takes advantage of the differentiation of PC12 cells (neurite outgrowth) induced by NGF. Cultures of PC12 cells are grown on Terasaki plates pre-coated with poly-D-lysine. Cells are exposed to NGF (1-50 (preferably 5) ng/ml) to induce neurite outgrowth as described elsewhere [LA Greene & AS Tischler, Establishment of a noradrenergic clonal line of rat adrenal pheochromocytoma cells which respond to nerve growth factor, Proc Natl Acad Sci USA. 1976 July; 73(7): 2424-2428]. In addition to NGF, cells are exposed to varying concentration of the compounds or vehicle. Following 4 days of exposure to NGF in the presence or absence of compound, neurite outgrowth is quantified. A neurite is scored if its caliber from origin to terminal is approximately the same and the length is equal to or greater than 1.5 the cell body diameter. The number of neurite bearing cells per total number of viable cells is calculated for each condition; the number of cells with neurites in the presence of NGF (without compound exposure) is considered to represent maximal (100%) outgrowth, to which the inhibitory effect of compounds of the invention on NGF-induced outgrowth is compared.

[3] = Table A (Formula Ia), NGF binding, PC12 cells, read-out: IC50
[4] = Table B (Formula Ib), NGF binding, PC12 cells, read-out: IC50
[5] = Table 3, read-out: NGF Binding Assay IC50
[6] = Table I (Formula VII), NGF binding, PC12 cells, read-out: IC50
[7] = Table 2, read-out: NGF Binding Assay IC50
[8] = Table J (Formula VIII), NGF binding, PC12 cells, read-out: IC50

Row | IC50 [1] [µM] | IC50 [2, 8] [µM] | Structure (SMILES) | other results
1 | – | > 50 | O=C(O)CCCN1C(=O)c2cccc3cccc(c23)C1=O [Compound 26G] | –
2 | – | < 10 | O=C(O)CCCN1C(=O)c2cccc3cc([N+](=O)[O-])cc(c23)C1=O [Compound 27G, 4-(5-Nitro-1,3-dioxo-1H-benzo[de]isoquinolin-2(3H)-yl)butanoic acid] | –
3 | – | < 10 | Nc1cc2c3c(cccc3c1)C(=O)N(CCCC(=O)O)C2=O [Compound 28G, 4-(5-Amino-1,3-dioxo-1H-benzo[de]isoquinolin-2(3H)-yl)butanoic acid] | –
4 | – | < 10 | CC(=O)Nc1cc2c3c(cccc3c1)C(=O)N(CCCC(=O)O)C2=O [Compound 29G] | –
5 | – | 10 to 29 | NC(=O)c1cc2c3c(cccc3c1)C(=O)N(CCCC(=O)O)C2=O [Compound 30G] | –
6 | – | > 50 | CN(C)S(=O)(=O)c1cc2c3c(cccc3c1)C(=O)N(CCCC(=O)O)C2=O [Compound 31G] | –
7 | 5 to 15 | < 10 | N#Cc1cc2c3c(cccc3c1)C(=O)N(CCCC(=O)O)C2=O [Compound 32G] | IC50 (PC12 cells): 5 to 15 µM; IC50 [2, 7]: < 10 µM; IC50 [2, 5]: < 10 µM
8 | – | 10 to 29 | O=C(O)CCCN1C(=O)c2cccc3cc(C(=O)O)cc(c23)C1=O [Compound 33G] | –
9 | – | 10 to 29 | N#Cc1ccc2c3c(cccc13)C(=O)N(CCCC(=O)O)C2=O [Compound 34G] | –
10 | – | 10 to 29 | O=C(O)CCCN1C(=O)c2cccc3c([N+](=O)[O-])ccc(c23)C1=O [Compound 35G] | –
11 | – | 30 to 50 | O=C(O)CCCN1C(=O)c2cccc3c(Br)ccc(c23)C1=O [Compound 36G] | –
12 | – | > 50 | O=C(O)CCCN1C(=O)c2cccc3c(S(=O)(=O)O)ccc(c23)C1=O [Compound 37G] | –
13 | – | 10 to 29 | O=C(O)CCCN1C(=O)c2cccc3c(Cl)ccc(c23)C1=O [Compound 38G] | –
14 | – | 10 to 29 | O=C(O)CCCN1C(=O)c2cccc3c(C(=O)O)ccc(c23)C1=O [Compound 39G] | –
15 | – | 10 to 29 | O=C(O)CCCN1C(=O)c2cccc3c(C(=O)c4ccccc4)ccc(c23)C1=O [Compound 40G] | –
16 | – | < 10 | CN(C)S(=O)(=O)c1ccc2c3c(cccc13)C(=O)N(CCCC(=O)O)C2=O [Compound 41G] | –

Continued, molecule first:

Row | Structure (SMILES) | IC50 [1] [µM] | IC50 [2, 8] [µM] | other results
17 | O=C(O)CCCN1C(=O)c2ccc(-c3ccc4c(c3)C(=O)N(CCCC(=O)O)C4=O)cc2C1=O [Compound 1C] | 0.1 to 5 | – | –
18 | O=C(O)CCCN1C(=O)c2ccc(C(=O)O)cc2C1=O [Compound 1] | – | – | IC50 [2, 3]: > 50 µM
19 | O=C(O)CCCCN1C(=O)c2ccc(C(=O)O)cc2C1=O [Compound 2] | – | – | IC50 [2, 3]: > 50 µM
20 | O=C(O)c1ccc(Cl)c(N2C(=O)c3ccc4c5c(ccc(c35)C2=O)C(=O)N(c2cc(C(=O)O)ccc2Cl)C4=O)c1 [Compound 3D] | – | – | IC50 (PC12 cells): 0.1 to 5 µM
21 | O=C(O)c1cccc(N2C(=O)c3ccc(C(=O)O)cc3C2=O)c1 [Compound 3] | – | – | IC50 [2, 3]: > 50 µM
22 | O=C(O)c1ccc2c(c1)C(=O)N(c1cc(C(=O)O)ccc1Cl)C2=O [Compound 6] | – | – | IC50 [2, 3]: > 50 µM
23 | N#Cc1ccc2c(c1)CN(c1cccc(C(=O)O)c1)C2=O [Compound 8A] | – | – | IC50 [2, 4]: > 50 µM
24 | O=C(O)CCN1C(=O)c2ccc(-c3ccc4c(c3)C(=O)N(CCC(=O)O)C4=O)cc2C1=O [Compound 9C] | 5 to 15 | – | –
25 | Nc1ccc(C(=O)O)cc1N1C(=O)c2ccc3c4c(ccc(c24)C1=O)C(=O)N(C(CCC(=O)O)C(=O)O)C3=O (stereo not drawn) [Compound 9D] | 5 to 15 | – | IC50 (PC12 cells): 0.1 to 5 µM
26 | O=C(O)CCCCN1C(=O)c2ccc(-c3ccc4c(c3)C(=O)N(CCCCC(=O)O)C4=O)cc2C1=O [Compound 10C] | 0.1 to 5 | – | –
27 | O=C1c2ccc(-c3ccc4c(c3)C(=O)N(CCCS(=O)(=O)O)C4=O)cc2C(=O)N1CCCS(=O)(=O)O [Compound 11C] | 0.1 to 5 | – | –
28 | O=C(O)c1cccc(N2Cc3cc(C(=O)O)ccc3C2=O)c1 [Compound 12A, 2-(3-Carboxyphenyl)-1-oxoisoindoline-5-carboxylic acid] | – | – | IC50 (PC12 cells): 5 to 15 µM; IC50 [2, 5]: 10 to 29 µM; IC50 [2, 4]: 10 to 29 µM
29 | CCOC(=O)c1cccc(N2Cc3cc(C(=O)O)ccc3C2=O)c1 [Compound 15A] | 5 to 15 | – | –
30 | CN(C)c1cc2c3c(cc(N(C)C)cc3c1)C(=O)N(CCCC(=O)O)C2=O [Compound 15G] | – | – | IC50 [2, 6]: 30 to 50 µM
31 | CC(C)Nc1cc2c3c(cc(NC(C)C)cc3c1)C(=O)N(CCCC(=O)O)C2=O [Compound 16G] | – | – | IC50 [2, 6]: 10 to 29 µM
32 | O=C(O)CCCN1C(=O)c2cc(C(=O)O)cc3cc([N+](=O)[O-])cc(c23)C1=O [Compound 17G, 2-(3-Carboxypropyl)-8-nitro-1,3-dioxo-2,3-dihydro-1H-benzo[de]isoquinoline-5-carboxylic acid] | – | – | IC50 [2, 6]: < 10 µM
33 | Nc1cc2c3c(cc(C(=O)O)cc3c1)C(=O)N(CCCC(=O)O)C2=O [Compound 18G, 8-Amino-2-(3-carboxypropyl)-1,3-dioxo-2,3-dihydro-1H-benzo[de]isoquinoline-5-carboxylic acid] | – | – | IC50 [2, 6]: < 10 µM
34 | O=C(O)c1ccc(Cl)c(N2C(=O)c3cccc([N+](=O)[O-])c3C2=O)c1 [Compound 18] | – | – | IC50 [2, 3]: > 50 µM
35 | O=C(O)CCCCCN1C(=O)c2ccc(-c3ccc4c(c3)C(=O)N(CCCCCC(=O)O)C4=O)cc2C1=O [Compound 19C] | 0.1 to 5 | – | –
36 | CC(=O)Nc1cc2c3c(cc(C(=O)O)cc3c1)C(=O)N(CCCC(=O)O)C2=O [Compound 19G, 8-(Acetylamino)-2-(3-carboxypropyl)-1,3-dioxo-2,3-dihydro-1H-benzo[de]isoquinoline-5-carboxylic acid] | 5 to 15 | – | IC50 [2, 7]: < 10 µM; IC50 [2, 6]: < 10 µM
37 | N#Cc1cc2c3c(cc(C#N)cc3c1)C(=O)N(CCCC(=O)O)C2=O [Compound 20G] | – | – | IC50 [2, 6]: < 10 µM
38 | O=C(O)CCCCCCN1C(=O)c2ccc(-c3ccc4c(c3)C(=O)N(CCCCCCC(=O)O)C4=O)cc2C1=O [Compound 21C] | 5 to 15 | – | –
39 | O=C(O)c1cccc(N2C(=O)c3cc(-n4cccc4)cc4cc(-n5cccc5)cc(c34)C2=O)c1 [Compound 21G] | – | – | IC50 [2, 6]: > 50 µM
40 | O=C(O)CCCCCCCN1C(=O)c2ccc(-c3ccc4c(c3)C(=O)N(CCCCCCCC(=O)O)C4=O)cc2C1=O [Compound 22C] | 5 to 15 | – | –
41 | O=C(O)CCCN1C(=O)c2ccc(-c3ccc4c(c3)C(=O)N(CCCc3nnn[nH]3)C4=O)cc2C1=O [Compound 23C] | 0.1 to 5 | – | –
42 | O=C(O)c1ccc2c(c1)C(=O)N(CCN1C(=O)c3ccc(C(=O)O)cc3C1=O)C2=O [Compound 41C] | – | – | IC50 ([2]; Table E (Formula IIIA), NGF binding, PC12 cells, read-out: IC50): < 10 µM
43 | O=C(O)CCCN1C(=O)c2cccc3cc(-c4cccc(C(=O)O)c4)cc(c23)C1=O [Compound 45G] | 15 to 25 | – | –
44 | O=C(O)CCCN1C(=O)c2cccc3cc(-c4nnn[nH]4)cc(c23)C1=O [Compound 46G] | 5 to 15 | – | IC50 (PC12 cells): 5 to 15 µM
